Measured values taken from PubChem BioAssay (NCI).
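Following 48 hours of exposure in 96-well plates, responses at five concentrations were used to interpolate endpoints linearly. TGI denotes the concentration required for complete inhibition of growth.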

Legend:
Assay in all cases: growth of human tumour cells (NCI), 48 h
DU-145 prostate = tested on: DU-145 prostate
CCRF-CEM leukemia = tested on: CCRF-CEM leukemia
UACC-257 melanoma = tested on: UACC-257 melanoma
SW-620 colon = tested on: SW-620 colon
SNB-75 CNS = tested on: SNB-75 CNS
T-47D breast = tested on: T-47D breast
SN12C renal = tested on: SN12C renal
MCF7 breast = tested on: MCF7 breast
SF-268 CNS = tested on: SF-268 CNS
786-0 renal = tested on: 786-0 renal
MDA-N = tested on: MDA-N
TK-10 renal = tested on: TK-10 renal
OVCAR-3 ovarian = tested on: OVCAR-3 ovarian
COLO 205 colon = tested on: COLO 205 colon
RXF 393 renal = tested on: RXF 393 renal
HOP-62 NSCLC = tested on: HOP-62 NSCLC
SK-MEL-2 melanoma = tested on: SK-MEL-2 melanoma
UACC-62 melanoma = tested on: UACC-62 melanoma
SK-OV-3 ovarian = tested on: SK-OV-3 ovarian
HCC-2998 colon = tested on: HCC-2998 colon
NCI-H226 lung = tested on: NCI-H226 lung
A549 NSCLC = tested on: A549 NSCLC
SK-MEL-28 melanoma = tested on: SK-MEL-28 melanoma
OVCAR-5 ovarian = tested on: OVCAR-5 ovarian
SK-MEL-5 melanoma = tested on: SK-MEL-5 melanoma
NCI-H23 lung = tested on: NCI-H23 lung
MOLT-4 leukemia = tested on: MOLT-4 leukemia
UO-31 renal = tested on: UO-31 renal
SNB-19 CNS = tested on: SNB-19 CNS
IGROV1 ovarian = tested on: IGROV1 ovarian
SF-295 CNS = tested on: SF-295 CNS
HS 578T breast = tested on: HS 578T breast
M14 melanoma = tested on: M14 melanoma
HCT-116 colon = tested on: HCT-116 colon
U251 CNS = tested on: U251 CNS
HT29 colon = tested on: HT29 colon
MDA-MB-231 breast = tested on: MDA-MB-231 breast
MALME-3M melanoma = tested on: MALME-3M melanoma
CAKI-1 renal = tested on: CAKI-1 renal
ACHN renal = tested on: ACHN renal
HL-60(TB) leukemia = tested on: HL-60(TB) leukemia
A498 renal = tested on: A498 renal
K-562 leukemia = tested on: K-562 leukemia
MDA-MB-435 = tested on: MDA-MB-435
NCI/ADR-RES ovarian = tested on: NCI/ADR-RES ovarian
NCI-H522 lung = tested on: NCI-H522 lung
LOX IMVI melanoma = tested on: LOX IMVI melanoma
HCT-15 colon = tested on: HCT-15 colon
BT-549 breast = tested on: BT-549 breast
NCI-H460 lung = tested on: NCI-H460 lung
OVCAR-8 ovarian = tested on: OVCAR-8 ovarian
SF-539 CNS = tested on: SF-539 CNS
PC-3 prostate = tested on: PC-3 prostate
EKVX NSCLC = tested on: EKVX NSCLC
KM12 colon = tested on: KM12 colon
HOP-92 NSCLC = tested on: HOP-92 NSCLC
OVCAR-4 ovarian = tested on: OVCAR-4 ovarian
RPMI-8226 leukemia = tested on: RPMI-8226 leukemia

c1ccc([P+](c2ccccc2)(c2ccccc2)C2c3ccccc3-c3ccccc32)cc1
TGI (DU-145 prostate): 60.6 µM | TGI (CCRF-CEM leukemia): 7.61 µM | TGI (UACC-257 melanoma): 5.91 µM | TGI (SW-620 colon): 16.2 µM | TGI (SNB-75 CNS): 7.06 µM | TGI (T-47D breast): 12.5 µM | TGI (SN12C renal): 7.29 µM | TGI (MCF7 breast): 10 µM | TGI (SF-268 CNS): 9.37 µM | TGI (786-0 renal): 10.9 µM | TGI (MDA-N): 7.84 µM | TGI (TK-10 renal): 9.21 µM | TGI (OVCAR-3 ovarian): 5.68 µM | TGI (COLO 205 colon): 2.63 µM | TGI (RXF 393 renal): 5.06 µM | TGI (HOP-62 NSCLC): 4.7 µM | TGI (SK-MEL-2 melanoma): 3.87 µM | TGI (UACC-62 melanoma): 5.02 µM | TGI (SK-OV-3 ovarian): 4.33 µM | TGI (HCC-2998 colon): 9.62 µM | TGI (NCI-H226 lung): 5.94 µM | TGI (A549 NSCLC): 14.3 µM | TGI (SK-MEL-28 melanoma): 8.03 µM | TGI (OVCAR-5 ovarian): 42 µM | TGI (SK-MEL-5 melanoma): 3.82 µM | TGI (NCI-H23 lung): 5.38 µM | TGI (MOLT-4 leukemia): 7.12 µM | TGI (UO-31 renal): 8.03 µM | TGI (SNB-19 CNS): 10.3 µM | TGI (IGROV1 ovarian): 13.6 µM | TGI (SF-295 CNS): 5.35 µM | TGI (HS 578T breast): 5.75 µM | TGI (M14 melanoma): 11.3 µM | TGI (HCT-116 colon): 2.39 µM | TGI (U251 CNS): 4.12 µM | TGI (HT29 colon): 4.04 µM | TGI (MDA-MB-231 breast): 6.84 µM | TGI (MALME-3M melanoma): 15.1 µM | TGI (CAKI-1 renal): 69.1 µM | TGI (ACHN renal): 7.79 µM | TGI (HL-60(TB) leukemia): 3.92 µM | TGI (A498 renal): 4.51 µM | TGI (K-562 leukemia): > 100 µM | TGI (MDA-MB-435): 3.18 µM | TGI (NCI/ADR-RES ovarian): 41.9 µM | TGI (NCI-H522 lung): 6.06 µM | TGI (LOX IMVI melanoma): 4.96 µM | TGI (HCT-15 colon): 11 µM | TGI (BT-549 breast): 7.44 µM | TGI (NCI-H460 lung): 10.2 µM | TGI (OVCAR-8 ovarian): 10.1 µM | TGI (SF-539 CNS): 6.98 µM | TGI (PC-3 prostate): 5.46 µM

CCCCC(=O)Nc1ccc2c(C)cc(-c3ccc(-c4cc(-c5ccc(C)cc5)cc(-c5ccc(-c6cc(C)c7ccc(NC(=O)CCCC)nc7n6)cc5)n4)cc3)nc2n1
TGI (DU-145 prostate): > 100 µM | TGI (CCRF-CEM leukemia): > 100 µM | TGI (UACC-257 melanoma): > 100 µM | TGI (EKVX NSCLC): > 100 µM | TGI (KM12 colon): > 100 µM | TGI (SNB-75 CNS): > 100 µM | TGI (HOP-92 NSCLC): > 100 µM | TGI (T-47D breast): > 100 µM | TGI (SN12C renal): > 100 µM | TGI (MCF7 breast): > 100 µM | TGI (SF-268 CNS): > 100 µM | TGI (786-0 renal): > 100 µM | TGI (MDA-N): > 100 µM | TGI (TK-10 renal): > 100 µM | TGI (OVCAR-3 ovarian): > 100 µM | TGI (COLO 205 colon): > 100 µM | TGI (HOP-62 NSCLC): > 100 µM | TGI (SK-MEL-2 melanoma): > 100 µM | TGI (UACC-62 melanoma): > 100 µM | TGI (SK-OV-3 ovarian): > 100 µM | TGI (HCC-2998 colon): > 100 µM | TGI (A549 NSCLC): > 100 µM | TGI (SK-MEL-28 melanoma): > 100 µM | TGI (OVCAR-5 ovarian): > 100 µM | TGI (SK-MEL-5 melanoma): > 100 µM | TGI (NCI-H23 lung): > 100 µM | TGI (MOLT-4 leukemia): > 100 µM | TGI (UO-31 renal): > 100 µM | TGI (OVCAR-4 ovarian): > 100 µM | TGI (SNB-19 CNS): > 100 µM | TGI (SF-295 CNS): > 100 µM | TGI (RPMI-8226 leukemia): > 100 µM | TGI (M14 melanoma): > 100 µM | TGI (HCT-116 colon): > 100 µM | TGI (U251 CNS): > 100 µM | TGI (MDA-MB-231 breast): > 100 µM | TGI (MALME-3M melanoma): > 100 µM | TGI (CAKI-1 renal): > 100 µM | TGI (ACHN renal): > 100 µM | TGI (A498 renal): > 100 µM | TGI (K-562 leukemia): > 100 µM | TGI (MDA-MB-435): > 100 µM | TGI (NCI/ADR-RES ovarian): > 100 µM | TGI (NCI-H522 lung): > 100 µM | TGI (HCT-15 colon): > 100 µM | TGI (BT-549 breast): > 100 µM | TGI (NCI-H460 lung): > 100 µM | TGI (PC-3 prostate): > 100 µM
